Results on 3 compounds are retold here after paper PMC6940354, “Comparative Assessment of the New PDE7 Inhibitor – GRMS-55 and Lisofylline in Animal Models of Immune-Related Disorders: A PK/PD Modeling Approach” (Pharmaceutical Research, 2020).

Converted amounts (≈) assume the structure as drawn. Like-named read-outs stand apart in the source and are kept apart here.

Assay [1] deals with TNF-α plasma levels in male Wistar rats with LPS-induced endotoxemia. Nature of the assay: LPS-induced endotoxemia in rats, PK/PD model of plasma TNF-α. It counts as in vivo, rat. Particulars: for IC50: Rattus norvegicus, iv; for activity in inhibiting TNF-α release in vivo, times lower than that of rolipram: ratio of IC50 values to rolipram. As for the experimental part: Male Wistar rats were implanted with catheters (SAI Infusion Technologies, USA) into the jugular vein and after a two-day recovery period they were administered with LPS dissolved in saline at a dose of 1 mg kg ^−1 into the tail vein simultaneously with one of the investigated compounds. […] The doses of the compounds were selected based on the literature data or results of our previous experiments. Each control group received LPS at the same IV dose and an appropriate volume of corresponding vehicle. […] The plasma samples were collected and stored at −80°C until analysis.
TNF-α levels in LPS-stimulated rat blood in vitro and in rat plasma samples from the in vivo studies were analyzed by the Rat TNF-α Quantikine ELISA Immunoassay Kit (R&D Systems, USA) according to the manufacturer’s instructions. The assay was linear at the range of 12.5–800 pg mL^−1. Levels of TNF-α in mice serum were measured by ELISA Kits for Tumor Necrosis Factor Alpha (Cloud-Clone Corp., USA). This assay was linear at the range of 15.6–1000 pg mL^−1. Absorbance was measured at 450 nm using a POLARstar Omega multi-mode microplate reader (BMG LABTECH, Germany).
PK/PD and PK/PD/DIS progression models were developed considering the mechanism of action of the investigated compounds, the mechanisms of disease progression in the case of CIA, and the subsequent stages leading to TNF-α release in the case of LPS-induced endotoxemia. Various numbers of transit compartments were tested during development of the models, and the final models were chosen based on the goodness-of-fit criteria, such as AIC, SBC, a visual inspection of the fitting, and parameter precision. Estimated values of pharmacokinetic parameters were fixed during PK/PD and PK/PD/DIS progression model fitting procedures. […] PK/PD and PK/PD/DIS progression modeling were performed in ADAPT 5 software using the weighted least squares algorithm.
Therefore, as a result of PK/PD analysis, three sets of pharmacodynamic parameters were obtained based on the data from the three individual experiments.
The applied model is a modified indirect response model ([19]) with implemented transit compartments (T1-T4) that describe the delay of the observed pharmacodynamic response. In this scheme τ is the mean transit time, kin is the time limited (from 0 to tlag) zero-order rate constant of production of a TNF-α precursor (e.g., TNF-α mRNA). Different numbers of transit compartments were tested during the model development, but the best fit was observed using four transit compartments.
All Imax values were fixed to 1.

Assay [2] has as its system collagen-induced arthritis (CIA) in female Lewis rats. Kind of assay: Histological evaluation of ankle cross-sections from CIA rats. It counts as in vivo, rat. Particulars: multiple administration, compared to vehicle control. As for the experimental part: At a day 0 of the experiment animals were subcutaneously (SC) injected at the base of the tail with 200 μL of the emulsion using a 27 gauge × 5/8″ needle and Hamilton syringe. At day 7 after the initial immunization, a booster injection with 100 μL of emulsion was performed. Ninety % of rats developed symptoms of disease (paw swelling >150% of day 0) at day 20 of the experiment. At this day, diseased animals were randomly divided into five groups (n = 6). […] One investigated group received (±)-LSF dissolved in saline at an SC dose of 80 mg kg^−1 once daily. The corresponding control groups were administered with appropriate volumes of vehicles IP or SC. At day 40 animals were sacrificed. Hind paws of rats were taken and immersed into 4% buffered formalin solution for a subsequent histological analysis. Blood samples were collected and allowed to clot for 20 min and then centrifuged at 2000 x g for 15 min. Serum samples were collected and frozen at -80°C.
The morphological studies were performed with the imaging CellSens Dimention (Olympus) software. Osteoarthritis histopathology was assessed based on the symptoms associated with synovial inflammation, chondropathy, and subchondral osteoarthritis. Synovitis index estimation involved synovial inflammation, synovial lining thickness, dense of cellularity, and presence of perivascular lymphoid aggregates, where normal synovium (score 0) is defined as thin linning with sparse cellular distribution and no/few inflammatory cells, mild and moderate synovial inflammation (score 1 to 2) indicate thickness of linning with dense cellularity with inflammatory cells, and severe inflammation (score 3) means hypervascular synovitis containing lymphoid aggregates. Two aspects of chondropathy were graded: surface integrity and chondrocyte yielding score 0 for normal morphology to score 3 for chondral lesion with chondrocyte hypercellurarity and/or cloning, and complete cartilage surface integrity loss. Subchondral plate thickening, bone trabeculae deterioration, bone marrow lesion (bone pseudocysts - cavitary lesion formation) associated with fibrovascular replacement of marrow spaces were accounted for subchondral osteoarthritis with grading score from 0 to 3 in severe lesion. The sample preparation procedure for histological evaluation is described in the supplementary materials.
The hind paws were cut about 0.5 cm above the rat joint. Then the joints were fixed in 4% buffered formalin for one week, decalcified, dehydrated in ethanol solutions of increasing concentrations, and embedded in the paraffin blocks. Subsequently, paws were serially cut at 6-μm thickness using a rotational microtome Leica RM 2145 type and stained with Masson's Trichrome. Digital images were taken using a computerized digital camera (Olympus UC90, Olympus).

Setting [3] is: read-out: IC50, concentration of compound producing 50% of Imax (inhibition of TNF-α release in vivo), Final estimate (CV%), plasma concentration, PK/PD model, Imax fixed to 1, male Wistar rats, LPS 1 mg kg^−1 IV, IV GRMS-55 20, rolipram 5, (±)-LSF and PTX 40 and 80 mg kg^−1.

For `CC(O)CCCCn1c(=O)c2c(ncn2C)n(C)c1=O` (racemic) [(±)-LSF, lisofylline], the IC50 in assay [1] (setting [3]) was 5.8 µg/mL (≈ 20.7 µM). Further, the “potency in inhibiting TNF-α release in vivo, times stronger than PTX” value in assay [1] (ratio of IC50 values) was ~ 2.4 times. The “activity in inhibiting TNF-α release in vivo, times lower than that of rolipram” value in assay [1] is reported as ~ 16 times. Moreover, in assay [2], the “chondritis / articular cartilage, histological score (result in words)” value is listed as “attenuated”; the “subchondral osteoarthritis, histological score (result in words)” value is reported as “failed to significantly diminish”; the “synovitis / synovial inflammation, histological score (result in words)” value is given as “significant alleviation”.

Turning to `Cn1c(=O)c2c(nc(NCCc3ccccc3)n2CCCC(=O)NN=Cc2ccccc2O)n(C)c1=O` [GRMS-55, 4-(1,3-Dimethyl-2,6-dioxo-8-(phenethylamino)-2,3,6,7-tetrahydro-1H-purin-7-yl)-N′-(2-hydroxybenzylidene)butanehydrazide], the IC50 in assay [1] (setting [3]) is approximately 1.1 µg/mL (≈ 2.18 µM). For the same compound, the “activity in inhibiting TNF-α release in vivo, times lower than that of rolipram” value in assay [1] is reported as ~ 3 times. In assay [2], the “chondritis / articular cartilage, histological score (result in words)” value is given as “attenuated”; the “subchondral osteoarthritis, histological score (result in words)” value is “attenuated”; the “synovitis / synovial inflammation, histological score (result in words)” value is “significant alleviation”.

For the compound `COc1ccc(C2CNC(=O)C2)cc1OC1CCCC1` (stereo not drawn) [Rolipram, rolipram], the IC50 in assay [1] (read-out: IC50, concentration of compound producing 50% of Imax (inhibition of TNF-α release in vivo), Final estimate (CV%)) was 0.36 µg/mL (≈ 1.31 µM). In assay [2], the “chondritis / articular cartilage, histological score (result in words)” value is on record as “significant amelioration”; the “subchondral osteoarthritis, histological score (result in words)” value is recorded as “significant amelioration”; the “synovitis / synovial inflammation, histological score (result in words)” value is given as “significant amelioration”.
